What was measured:
H1047R PIK3CA enzyme = H1047R PIK3CA enzyme (Homo sapiens, UniProt P42336, H1047R); assay: ADP-Glo Biochemical PIK3CA Kinase Assay
cells = details: Homo sapiens, MCF-10A, read-out: MCF10A IC50

H1047R PIK3CA enzyme, sequence (P42336 whole entry H1047R): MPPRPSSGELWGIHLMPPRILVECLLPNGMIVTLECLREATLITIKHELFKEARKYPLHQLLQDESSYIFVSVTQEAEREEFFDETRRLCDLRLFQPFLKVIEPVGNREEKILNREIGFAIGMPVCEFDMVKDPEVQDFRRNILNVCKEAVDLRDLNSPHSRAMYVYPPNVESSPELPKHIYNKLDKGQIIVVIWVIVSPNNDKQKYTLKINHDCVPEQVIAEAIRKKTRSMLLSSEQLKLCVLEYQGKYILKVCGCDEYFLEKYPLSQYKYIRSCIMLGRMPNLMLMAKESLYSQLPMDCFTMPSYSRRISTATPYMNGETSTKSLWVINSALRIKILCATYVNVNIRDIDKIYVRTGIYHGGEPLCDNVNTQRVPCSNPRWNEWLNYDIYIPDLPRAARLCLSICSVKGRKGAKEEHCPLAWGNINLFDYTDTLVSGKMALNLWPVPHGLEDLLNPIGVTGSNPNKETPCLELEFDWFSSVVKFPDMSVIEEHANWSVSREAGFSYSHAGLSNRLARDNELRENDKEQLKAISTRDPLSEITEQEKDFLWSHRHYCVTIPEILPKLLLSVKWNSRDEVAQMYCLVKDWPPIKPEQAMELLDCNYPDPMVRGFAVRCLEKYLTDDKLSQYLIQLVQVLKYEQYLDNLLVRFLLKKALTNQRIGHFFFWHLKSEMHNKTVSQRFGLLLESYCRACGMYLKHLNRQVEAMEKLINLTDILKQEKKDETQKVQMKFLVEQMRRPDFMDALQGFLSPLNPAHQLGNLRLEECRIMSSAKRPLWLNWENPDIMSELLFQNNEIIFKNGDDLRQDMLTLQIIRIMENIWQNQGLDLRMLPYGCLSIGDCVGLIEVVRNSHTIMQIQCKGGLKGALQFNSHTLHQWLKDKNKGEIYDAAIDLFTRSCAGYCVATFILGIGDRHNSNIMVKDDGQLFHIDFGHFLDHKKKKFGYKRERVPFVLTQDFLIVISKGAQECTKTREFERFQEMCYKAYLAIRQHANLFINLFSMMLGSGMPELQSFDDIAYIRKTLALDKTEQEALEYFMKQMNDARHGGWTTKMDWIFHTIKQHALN
H1047R PIK3CA enzyme, sequence (P27986 whole entry partner): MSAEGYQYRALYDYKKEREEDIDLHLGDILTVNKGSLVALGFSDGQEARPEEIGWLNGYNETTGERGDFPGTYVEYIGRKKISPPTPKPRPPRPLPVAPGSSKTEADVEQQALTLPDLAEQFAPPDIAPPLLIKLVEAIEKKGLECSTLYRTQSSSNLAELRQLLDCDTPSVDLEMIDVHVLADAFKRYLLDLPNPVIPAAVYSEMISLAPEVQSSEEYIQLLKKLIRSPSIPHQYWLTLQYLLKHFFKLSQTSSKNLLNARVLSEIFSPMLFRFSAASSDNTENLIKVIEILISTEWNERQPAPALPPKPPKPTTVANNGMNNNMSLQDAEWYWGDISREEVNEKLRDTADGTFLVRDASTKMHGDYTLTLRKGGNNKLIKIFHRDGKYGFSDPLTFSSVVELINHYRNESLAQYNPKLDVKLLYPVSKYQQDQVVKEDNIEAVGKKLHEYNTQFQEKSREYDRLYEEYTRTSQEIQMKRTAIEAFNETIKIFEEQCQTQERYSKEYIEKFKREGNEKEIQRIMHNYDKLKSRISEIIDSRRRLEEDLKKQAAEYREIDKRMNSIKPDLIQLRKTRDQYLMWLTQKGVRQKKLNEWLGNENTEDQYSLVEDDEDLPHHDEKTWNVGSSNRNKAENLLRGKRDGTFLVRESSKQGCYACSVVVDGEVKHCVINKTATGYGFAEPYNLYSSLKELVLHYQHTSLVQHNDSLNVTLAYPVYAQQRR

Structure (SMILES)	IC50 (H1047R PIK3CA enzyme) [nM]	IC50 (cells) [nM]
Cc1ncncc1-c1cc(NC(=O)c2cc(F)cc(C(F)(F)F)c2)c2c(c1)C(=O)NC2c1cc(F)ccc1Cl (centres unmarked) [Compound I-985]	≤ 100	< 1000
Cc1ccccc1C1NC(=O)c2cc(NC3COC3)cc(NC(=O)c3csc4ccccc34)c21 (centres unmarked) [Compound I-51]	≤ 100	< 1000
O=C(Nc1cc(Br)cc2c1C(c1cc(F)ccc1Cl)NC2=O)c1cc(F)cc(C(F)(F)F)c1 (centres unmarked) [Compound I-124]	≤ 100	1000 to 5000
O=C1NC(c2cc(F)ccc2Cl)c2c(NC(=O)N3CCc4cc(F)ccc43)cc(-c3cnn(C(F)F)c3)cc21 (centres unmarked) [Compound I-2300]	≤ 100	1000 to 5000
O=C(Nc1cc(-n2cccn2)cc2c1[C@H](c1cc(F)ccc1Cl)NC2=O)c1cc(F)cc(C(F)(F)F)c1 [Compound I-1069]	≤ 100	< 1000
C=Cc1cc(NC(=O)c2csc3ccccc23)c2c(c1)C(=O)NC2c1ccccc1C (centres unmarked) [Compound I-100, N-[6-Ethenyl-3-(2-methylphenyl)-1-oxo-2,3-dihydro-1H-isoindol-4-yl]-1-benzothiophene-3-carboxamide]	≤ 100	5000 to 10000
Cc1ccccc1C1NC(=O)c2cc(Br)cc(NC(=O)c3cc(F)cc(C(F)(F)F)c3)c21 (centres unmarked) [Compound I-54]	100 to 500	1000 to 5000
N#Cc1cc(NC(=O)N2CC(O)(C(F)(F)F)c3ccccc32)c2c(c1)C(=O)NC2c1cc(F)ccc1Cl (centres unmarked) [Compound I-2473]	≤ 100	< 1000
Cn1cnnc1Nc1cc(NC(=O)c2cc(F)cc(C(F)(F)F)c2)c2c(c1)C(=O)NC2c1cc(F)ccc1Cl (centres unmarked) [Compound I-1083]	≤ 100	1000 to 5000
[2H]C1([2H])N(C(=O)Nc2cccc3c2[C@H](c2cc(F)ccc2Cl)NC3=O)c2ccc(F)cc2[C@]1(O)C(F)(F)F (single isomer, unassigned) [Compound I-2595]	≤ 100	< 1000
O=C(Nc1cc(Br)cc2c1[C@H](c1cc(F)ccc1Cl)NC2=O)c1cc(F)cc(C(F)(F)F)c1 [Compound I-388]	≤ 100	< 1000
O=C1NC(c2cc(F)ccc2Cl)c2c(NC(=O)N3CC(O)(C(F)F)c4cc(F)ccc43)cc(F)cc21 (centres unmarked) [Compound I-2622]	≤ 100	1000 to 5000
N#Cc1c(-c2cc(NC(=O)c3cc(F)cc(C(F)(F)F)c3)c3c(c2)C(=O)N[C@H]3c2cc(F)ccc2Cl)ccc2ncnn12 (single isomer, unassigned) [Compound I-1648]		< 1000
N#Cc1c(-c2cc(NC(=O)c3cc(F)cc(C(F)(F)F)c3)c3c(c2)C(=O)N[C@@H]3c2cc(F)ccc2Cl)ccc2ncnn12 (single isomer, unassigned) [Compound I-1647]		1000 to 5000
Cc1ccccc1C1NC(=O)c2nccc(NC(=O)N3CCc4c(F)cc(F)cc43)c21 (centres unmarked) [Compound I-148]	500 to 1000	
O=C1NC(c2cc(F)ccc2Cl)c2c(NCc3ccccc3)cc(Br)cc21 (centres unmarked) [Compound I-1658]	10000 to 100000	
O=C1N[C@H](c2cc(F)ccc2Cl)c2c(NC(=O)N3C[C@](O)(C(F)(F)F)c4cc(F)ccc43)cc(-n3ncccc3=O)cc21 (single isomer, unassigned) [Compound I-2535]	1000 to 10000	
N#C[C@H]1C[C@H](c2cc(NC(=O)c3cc(F)cc(C(F)(F)F)c3)c3c(c2)C(=O)N[C@H]3c2cc(F)ccc2Cl)C1 (single isomer, unassigned) [Compound I-1326]	≤ 100	
O=C1N[C@H](c2cc(F)ccc2Cl)c2c(Nc3cn[nH]c3)cc(Br)cc21 (racemic) [Compound I-2183]	10000 to 100000	
O=C(Nc1cccc2c1C(C1=CCCCC1)NC2=O)c1cc(F)cc(C(F)(F)F)c1 (centres unmarked) [Compound I-1629]	1000 to 10000	
Cc1ccccc1[C@@H]1NC(=O)c2cc(CO)cc(NC(=O)c3nsc4ccccc34)c21 [Compound I-306]	≤ 100	

Structure (SMILES)	IC50 (H1047R PIK3CA enzyme) [nM]	IC50 (cells) [nM]
O=C(Nc1cccc2c1C(c1ccc(-c3ccccc3)cc1Cl)NC2=O)c1cc(F)cc(C(F)(F)F)c1 (centres unmarked) [Compound I-421]	1000 to 10000	
O=C1N[C@H](c2cc(F)ccc2Cl)c2c(NC(=O)[C@@H]3CCC[C@H](C(F)(F)F)C3)cc(-c3ccc4ncnn4c3)cc21 [Compound I-2031]	1000 to 10000	
O=C1NC(c2cc(F)ccc2Cl)c2c(Nc3noc4ccccc34)cc(Br)cc21 (centres unmarked) [Compound I-1058]	10000 to 100000	
CN(C)S(=O)(=O)n1nccc1-c1cc(NC(=O)c2cc(F)cc(C(F)(F)F)c2)c2c(c1)C(=O)N[C@@H]2c1cc(F)ccc1Cl [Compound I-1598]	500 to 1000	
O=C1N[C@H](c2cc(F)ccc2Cl)c2c(NC(=O)[C@H]3CCC[C@H](OC(F)(F)F)C3)cccc21 (single isomer, unassigned) [Compound I-2211]	10000 to 100000	
CCC(=O)Nc1cc(NC(=O)c2cc(F)cc(C(F)(F)F)c2)c2c(c1)C(=O)NC2c1cc(F)ccc1Cl (centres unmarked) [Compound I-552]	≤ 100	
O=C(Nc1cccc2c1[C@@H](C13C[C@H]4C[C@@H](C1)C[C@@H](C3)C4)NC2=O)c1cc(F)cc(C(F)(F)F)c1 (racemic) [Compound I-2074]	10000 to 100000	
N#Cc1cnc2ncc(-c3cc(NC(=O)c4cc(F)cc(C(F)(F)F)c4)c4c(c3)C(=O)N[C@H]4c3cc(F)ccc3Cl)cn12 [Compound I-1859]	≤ 100	
O=C(Nc1cc(-c2cn[nH]c2)nc2c1[C@@H](c1cc(F)ccc1Cl)NC2=O)c1cc(F)cc(Cl)c1 [Compound I-195]	1000 to 10000	
CN1CCN(Cc2cc(NC(=O)c3cc(F)cc(C(F)(F)F)c3)c3c(c2)C(=O)NC3c2cc(F)ccc2Cl)CC1=O (centres unmarked) [Compound I-1235]	100 to 500	
O=Cc1cc(NC(=O)c2cc(F)cc(C(F)(F)F)c2)c2c(c1)C(=O)NC2c1cc(F)ccc1Cl (centres unmarked) [Compound I-333, N-(3-(2-Chloro-5-fluorophenyl)-6-formyl-1-oxoisoindolin-4-yl)-3-fluoro-5-(trifluoromethyl)benzamide]	≤ 100	
N#Cc1cncn1Cc1cc(NC(=O)c2cc(F)cc(C(F)(F)F)c2)c2c(c1)C(=O)N[C@@H]2c1cc(F)ccc1Cl (stereo in doubt) [Compound I-1749]	100 to 500	
N#Cc1cnc2c(F)cc(-c3cc(NC(=O)c4cc(F)cc(C(F)(F)F)c4)c4c(c3)C(=O)NC4c3cc(F)ccc3Cl)cn12 (centres unmarked) [Compound I-1797]	≤ 100	
Cn1cc(-c2cc(NC(=O)c3cc(F)cc(C(F)(F)F)c3)c3c(n2)C(=O)NC3c2cc(F)ccc2Cl)ccc1=O (centres unmarked) [Compound I-547]	≤ 100	
Cc1cc2ncnn2cc1-c1cc(NC(=O)c2cc(F)cc(C(F)(F)F)c2)c2c(c1)C(=O)NC2c1cc(F)ccc1Cl (centres unmarked) [Compound I-1827]	≤ 100	
CC(=O)N1CC(C2NC(=O)c3cccc(NC(=O)c4cc(F)cc(C(F)(F)F)c4)c32)C1 (centres unmarked) [Compound I-1909]	10000 to 100000	
O=C(Nc1ccc(F)cc1F)Nc1ccnc2c1C(c1ccccc1Cl)NC2=O (centres unmarked) [Compound I-245]	1000 to 10000	
Cn1nc(Nc2cc(-c3ccc4ncnn4c3)cc3c2C(c2cc(F)ccc2Cl)NC3=O)c2cc(F)cc(C(F)(F)F)c21 (centres unmarked) [Compound I-2050]	500 to 1000	
NC(=O)c1cnccc1-c1cc(NC(=O)c2cc(F)cc(C(F)(F)F)c2)c2c(c1)C(=O)NC2c1cc(F)ccc1Cl (centres unmarked) [Compound I-1215]	100 to 500	
O=C1N[C@@H](c2cc(F)ccc2Cl)c2c(NC(=O)N3C[C@H](O)c4cc(F)ccc43)cc(-n3nccn3)cc21 (single isomer, unassigned) [Compound I-2342]	100 to 500	
